Experimental data taken from US9045426B2, “Method for producing 1,2-dihydropyridine-2-one compound” (EISAI R&D MANAGEMENT CO., LTD., priority 2004, dated 2015).

Legend:
[1] = Chargeability (static potential of the powder after stirring); type: physicochemical; details: about 1 g stirred for 30 minutes with fluoroplastic-coated stirring bar
Protocol: About 1 g of respective compounds is weighed into a weighing bottle (diameter of 35 mm). A stifling bar [fluoroplastic (tetrafluoroethylene resin) coating; 20 mm] is placed in the bottle and after the lid is in place, the powders are stirred for 30 minutes. The lid is opened at the same time that stirring is stopped; and the static potential of the powder is measured using a static potential measuring instrument.
STATIRON-DZ3 manufactured by Shishido Electrostatic, Ltd.

[2] = Physical stability in mixing operation in the presence of water or water-ethanol (1:1) mixed solution; type: physicochemical; details: room temperature, then dried at about 60° C.
Protocol: Physical Stability in Mixing-Operation in the Presence of Water or Water-Ethanol (1:1) Mixed Solution
About 150 mg of respective crystals are placed in an agate mortar, and the mixing operation is carried out at room temperature for a few minutes while the dropwise addition of water (or water-ethanol (1:1) mixed solution) continues.
Subsequently, respective crystals are dried at about 60° C. for 2 to 3 hours.

[3] = Lower explosion concentration limit (blown-up type dust explosion test); type: physicochemical; details: 24° C., humidity 49%, ignition discharge energy 10 J
Text: (§1) Minimum Ignition Energy and Lower Explosion Concentration Limit
(§2) An appropriate amount of Hydrate crystal corresponding to a concentration was uniformly put on sample dish of blown-up type dust explosion test apparatus. 50 kPa of air was compressed in a 1.3 L pressure tank, and the air was introduced into a glass cylinder by opening of a solenoid operated valve to form dust clouds. A discharge electrode was supplied with energy after 0.1 seconds after the opening of the solenoid operated valve. The criterion of ignition is an arrival of flame at an ignition mark set 100 mm above the discharge electrode.
(2) Measurement Conditions for Lower Explosion Concentration Limit
(§3) Temperature of the measurement room: 24° C.
(§4) Popping pressure of compressed air: 50 kPa
(§5) Ignition start time: 0.1 sec
Repetition of ignition test: 5 times
Ignition discharge energy: 10 J
(§6) Blown-up type dust explosion test apparatus (Environmental Technology Co., Ltd. DES -10)

[4] = Influence of change in temperature on Hydrate crystal (powder X-ray diffraction); type: physicochemical; details: 30 to 100 to 30° C.; returns to Hydrate when the temperature was lowered
Protocol: (§7) Influence of Change in Temperature and Humidity on Hydrate Crystal
(§8) Rigaku X-ray DTA system: RINT-2000 manufactured by Rigaku Corporation
(§9) Crystals obtained in Example 5 (Hydrate crystal) were ground in a mortar and then sampled on a 13-mm diameter glass plate. Measurement was carried out under the conditions below.
Scanning range (2θ): 5 to 40°
Measurement temperature was changed as follows in turn and powder X-ray diffraction patterns were measured at the respective temperatures in sequence: 30→40→50→60→70→80→100→70→60→50→40 and 30° C.

[5] = Minimum ignition energy (blown-up type dust explosion test); type: physicochemical; details: 24° C., humidity 49%, dust concentration 1250 g/m^3
Text: as §1, §2
(3) Measurement Conditions for Minimum Ignition Energy
as §3, §4, §5
Repetition of ignition test: 10 times
as §6

[6] = Influence of change in humidity on Hydrate crystal (powder X-ray diffraction); type: physicochemical; details: 4 to 90 to 5% RH
Protocol: as §7, §8, §9
Measurement humidity was changed as follows in turn and powder X-ray diffraction patterns were measured at the respective humidities in sequence: […]

[7] = system: AMPA (alpha -amino-3-hydroxy-5-methyl-4-isoxazolepropionic acid) receptor; details: cited from earlier work

Question: With N#Cc1ccccc1-c1cc(-c2ccccn2)cn(-c2ccccc2)c1=O [Reference Example 1, 3-(2-cyanophenyl)-5-(2-pyridyl)-1-phenyl-1,2-dihydropyridin-2-one, reference compound] as the compound, how does the “static potential of the powder (chargeability)” value [1] read?
Answer: 70-100 V

Question: What about the “change in crystal form during mixing operation (powder X-ray diffraction)” value (shortened to “change … (powder X-ray diffraction)”) [2] of the same compound?
Answer: underwent a change in crystal form

Question: With N#Cc1ccccc1-c1cc(-c2ccccn2)cn(-c2ccccc2)c1=O [Example 7, 3-(2-cyanophenyl)-5-(2-pyridyl)-1-phenyl-1,2-dihydropyridin-2-one] as the compound, how does the “change … (powder X-ray diffraction)” value [2] read?
Answer: no change in crystal form

Question: Which “change … (powder X-ray diffraction)” value [2] does the source give for N#Cc1ccccc1-c1cc(-c2ccccn2)cn(-c2ccccc2)c1=O [Example 6, 3-(2-cyanophenyl)-5-(2-pyridyl)-1-phenyl-1,2-dihydropyridin-2-one] here?
Answer: no change in crystal form

Question: Which “static potential of the powder (chargeability)” value [1] does the source give for N#Cc1ccccc1-c1cc(-c2ccccn2)cn(-c2ccccc2)c1=O.O [Example 5, 3-(2-cyanophenyl)-5-(2-pyridyl)-1-phenyl-1,2-dihydropyridin-2-one hydrate] here?
Answer: 0 V

Question: And the “Lower Explosion Concentration Limit” value [3]?
Answer: 160-170 g/m^3

Question: What about the “temperature at which Hydrate crystal transforms to Anhydrous crystal form III” value [4] of the same compound?
Answer: ≥ 60 °C

Question: What about the “Minimum Ignition Energy” value [5] of the same compound?
Answer: 50 to 100 mJ

Question: And the “humidity under which crystals stay Hydrate crystal” value [6]?
Answer: ≥ 10 % RH

Question: What about the “humidity under which Hydrate crystal changes to Anhydrous crystal form III” value ([6]; reversible) of the same compound?
Answer: ≤ 10 % RH

Question: What about the “change … (powder X-ray diffraction)” value [2] of the same compound?
Answer: no change in crystal form

Question: Which “antagonistic action against AMPA receptor” value [7] does the source give for N#Cc1ccccc1-c1cc(-c2ccccn2)cn(-c2ccccc2)c1=O [Compound (A), 3-(2-cyanophenyl)-5-(2-pyridyl)-1-phenyl-1,2-dihydropyridin-2-one] here?
Answer: significant antagonistic action
